Source: PMC8165744, “Identification of an Alternative Glycyrrhizin Metabolite Causing Liquorice-Induced Pseudohyperaldosteronism and the Development of ELISA System to Detect the Predictive Biomarker” (Frontiers in Pharmacology, 2021)
Where two headings read alike, the source gives them in different places.

Key:
[1] = pharmacokinetics of GA metabolites in EHBRs orally treated with GA; type: in vivo, Eisai hyperbilirubinuria rats (EHBRs); settings: for concentration at 12 h: Eisai hyperbilirubinuria rat (EHBR), rat, plasma, 200 mg/kg, GA 0.20 g/kg oral, read-out: plasma concentration 12 h after oral administration of GA
Experimental: Pharmacokinetic Experiments of GA Metabolites in EHBRs Orally Treated With GA
Male and female EHBRs (9 week-old) were anaesthetized by an intraperitoneal injection of urethane (1 g/kg) and their jugular veins were exposed. GA suspended in 0.5% carboxymethylcellulose was then administered orally (200 mg/kg) to the unconscious rats, and blood samples were collected from the jugular vein while urine samples were collected using a metabolic cage at appropriate times over a 12 h period.
LC-MS/MS Analysis for GA Metabolites
(§1) Briefly, after diluting serum and urine samples with water to obtain suitable concentrations, they were digested with subtilisin (0.91 U/ml), followed by the addition of astragaloside IV (used as an internal standard; Fujifilm Wako Pure Chemicals, Osaka, Japan), and deproteinized using 80% ethanol. […] The transitions (precursor to daughter) monitored and retention times were as follows: ESI(+), 743.4 to 567.5 m/z (35 and 25 V for cone voltage and collision energy, respectively) for compound 1 (8.1 min); ESI(–), 565.5 to 96.5 m/z (80 and 60 V) for 2 (9.6 min); ESI(–), 549.5 to 96.5 m/z (80 and 60 V) for 3 (15.4 min); ESI(+), 727.3 to 551.2 m/z (30 and 25 V) for 4 (11.3 min); ESI(+), 647.6 to 453.6 m/z (40 and 20 V) for 3MGA (15.0 min); ESI(+), 471.3 to 91.0 m/z (40 and 20 V) for GA (13.4 min); ESI(+), 823.5 to 453.6 m/z (30 and 20 V) for GL (18.4 min); and ESI(+), 785.4 to 143.0 m/z (30 and 20 V) for astragaloside IV (3.0 min). Linear regressions over the concentration range of 2 nM to 2 µM for each compound were examined using the peak-area ratio of the compounds to their internal standards and the least-squares method (r ^ 2 > 0.98). The detection limits for 1, GL, and GA were 6.4 nM, and those for 2, 3, and 4, and 3MGA were 3.2 nM.
FIGURE 5 Pharmacokinetic profiles of glycyrrhizin (GL) metabolites in female (A–C) and male (D–F) Eisai hyperbilirubinuria rats (EHBRs). […] Data of GA, 3MGA, 1, 2, and 3 in (A) and GA, 3MGA, 2, and 3 for (D) are relatively small; their magnified graphs are shown in (B,E), respectively. Concentrations of GA metabolites were measured using liquid chromatography-tandem mass spectrometry (LC-MS/MS), and data are means ± standard error (S.E: n = 4).

[2] = elimination of GA metabolites in SD rats intravenously injected with GA; type: in vivo, Sprague-Dawley (SD) rats; settings: female SD rats, GA iv, faeces collected 24 h after injection
Source text: as §1
FIGURE 6 Elimination of glycyrrhizin (GL) metabolites into bile in Sprague-Dawley (SD) rats. Female SD rats (10 week-old) were anesthetized using intraperitoneal injection of urethane (1 g/kg), and biliary tracts were cannulated. […] Concentrations of GA metabolites were measured using liquid chromatography-tandem mass spectrometry (LC-MS/MS) and accumulated elimination of GA-metabolites are means ± standard error (S.E: n = 3).

anti-3MGA-mAb = assay: competitive ELISA using anti-3MGA-mAb; type: binding; settings: competitive ELISA in aqueous solution, 3MGA calibrated to 100%
Experimental: ELISA System Using anti-3MGA-mAb
An ELISA system to measure the cross-reactivity of compounds 3 and 4 by using 3MGA-HSA-conjugate and anti-3MGA-mAb was used according to the protocol in our previous study ([Ishiuchi et al., 2019]). To measure the concentration of 3 in human serum samples using the system ELISA, 3 was dissolved in normal human serum (Sigma) to prepare standard solutions (16 nM–2.0 µM) and the samples or standard solutions (each 10 µl) and ethanol (40 µl) were well mixed and centrifuged (1.2 × 10^4 × g for 7 min). The supernatant was dried up under nitrogen flow at 40°C overnight, and the residue was dissolved in Can Get Signal® Solution 1 (Toyobo Co., Ltd: Osaka, Japan) (50 µl). […] When the observed values were more than 400 nM, the deproteinized serum samples were further diluted with Can Get Signal® Solution 1 for two or four times and analyzed again to observe values from 15.6 to 400 nM.
FIGURE 4 Development of enzyme-linked immunosorbent assay (ELISA) system to measure concentrations of 3 in human serum samples using anti-18β-glycyrrhetyl-3-O-glucuronide (3MGA)-monoclonal antibody (mAb). […] Standard lines between absorbance and concentrations of compound 3 are shown (D) Accuracy of ELISA system in measuring concentrations of 3 in human serum samples using anti-3MGA-mAb. Human serum samples were deproteinized, and concentration of 3 was measured using ELISA system. […]

[3] = parameters: method as in Takahashi et al., 2019; settings: ref Takahashi et al., 2019, cited from earlier work
[4] = system: mineralocorticoid receptor (MR); parameters: method as in earlier work; settings: ref Ulmann et al., 1975; Armanini et al., 1983; Monder et al., 1989; cited from earlier work

Compound	blood concentration in male rats relative to female rats ([1]; EHBRs, 12 h after oral GA)	concentration at 12 h ([1]; female EHBRs) [nM]	concentration at 12 h ([1]; male EHBRs) [nM]	accumulative elimination in faeces [2]	cross-reactivity to anti-3MGA-mAb (anti-3MGA-mAb) [%]	serum concentration of 3 relative to that of GA (fold higher) ([3]; human serum)	maximum serum concentration ([3]; previous clinical study) [µM]	binding activity (ED50) on mineralocorticoid receptor [4]
CC1(C)[C@@H](OS(=O)(=O)O)CC[C@]2(C)[C@H]3C(=O)C=C4[C@@H]5C[C@@](C)(C(=O)O[C@@H]6O[C@H](C(=O)O)[C@@H](O)[C@H](O)[C@H]6O)C[C@H](O)[C@]5(C)CC[C@@]4(C)[C@]3(C)CC[C@@H]12 [Compound 1, 22α-hydroxy-18β-glycyrrhetyl-3-O-sulfate-30-glucuronide]	approximately 7 fold	32000	177000	below detectable levels				
CC1(C)[C@@H](OS(=O)(=O)O)CC[C@]2(C)[C@H]3C(=O)C=C4[C@@H]5C[C@@](C)(C(=O)O)C[C@H](O)[C@]5(C)CC[C@@]4(C)[C@]3(C)CC[C@@H]12 [Compound 2, 22α-hydroxy-18β-glycyrrhetyl-3-O-sulfate]		10000	8200	0.86 ± 0.1 nmol				
CC1(C)[C@@H](OS(=O)(=O)O)CC[C@]2(C)[C@H]3C(=O)C=C4[C@@H]5C[C@@](C)(C(=O)O)CC[C@]5(C)CC[C@@]4(C)[C@]3(C)CC[C@@H]12 [Compound 3, 18β-glycyrrhetyl-3-O-sulfate]		2000	2200	1.8 ± 0.3 nmol	23	1.5–2 fold	4.2	
CC1(C)[C@@H](O[C@@H]2O[C@H](C(=O)O)[C@@H](O)[C@H](O)[C@H]2O)CC[C@]2(C)[C@H]3C(=O)C=C4[C@@H]5C[C@@](C)(C(=O)O)CC[C@]5(C)CC[C@@]4(C)[C@]3(C)CC[C@@H]12 [Compound 3MGA, 18β-glycyrrhetyl-3-O-glucuronide, reference compound]		100	1600	below detectable levels				
CC1(C)[C@@H](O)CC[C@]2(C)[C@H]3C(=O)C=C4[C@@H]5C[C@@](C)(C(=O)O)CC[C@]5(C)CC[C@@]4(C)[C@]3(C)CC[C@@H]12 [GA, glycyrrhetinic acid, reference compound]		2700	2600	9.8 ± 1.3 nmol				about 100 µM
CC1(C)[C@@H](O[C@H]2O[C@H](C(=O)O)[C@@H](O)[C@H](O)[C@H]2O[C@@H]2O[C@H](C(=O)O)[C@@H](O)[C@H](O)[C@H]2O)CC[C@]2(C)[C@H]3C(=O)C=C4[C@@H]5C[C@@](C)(C(=O)O)CC[C@]5(C)CC[C@@]4(C)[C@]3(C)CC[C@@H]12 [GL, glycyrrhizin]				below detectable levels				
